Experimental data: the supplement of paper PMC10307832

Key:
Experiment in all cases: relative viability (nuclei count vs DMSO), 5 days (fraction); higher = more cells survive
Sulindac + Palbociclib = compound: CC1=C(CC(=O)O)c2cc(F)ccc2/C1=C\c1ccc([S+](C)[O-])cc1 [Sulindac] + CC(=O)c1c(C)c2cnc(Nc3ccc(N4CCNCC4)cn3)nc2n(C2CCCC2)c1=O [Palbociclib] (partner 0.5 µM)
Method in brief: (§1)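 Values are medians from duplicate plates. Each reflects relative viability, defined as the nuclei count of treated wells over that of vehicle wells. Lung cancer cell lines in 1536-well plates were pin-tool dosed one day after seeding with one drug alone or with a fixed anchor-drug dose plus five library-drug doses (not always all listed) in √10 steps, then fixed, stained and imaged at 4× after 5 days.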

[1] = compound: CN[C@@H]1C[C@H]2O[C@@](C)([C@@H]1OC)n1c3ccccc3c3c4c(c5c6ccccc6n2c5c31)C(=O)NC4 [Staurosporine] + CC(C)C[C@H](NC(=O)[C@H](Cc1ccccc1)NC(=O)c1cnccn1)B(O)O [Bortezomib] (partner 0.002 µM)
Method in brief: as §1

[2] = compound: CN[C@@H]1C[C@H]2O[C@@](C)([C@@H]1OC)n1c3ccccc3c3c4c(c5c6ccccc6n2c5c31)C(=O)NC4 [Staurosporine] + COc1cc2c(Oc3ccc(NC(=O)C4(C(=O)Nc5ccc(F)cc5)CC4)cc3F)ccnc2cc1OCCCN1CCOCC1 [Foretinib] (partner 0.25 µM)
Method in brief: as §1

[3] = compound: CN[C@@H]1C[C@H]2O[C@@](C)([C@@H]1OC)n1c3ccccc3c3c4c(c5c6ccccc6n2c5c31)C(=O)NC4 [Staurosporine] + CS(=O)(=O)CCNCc1ccc(-c2ccc3ncnc(Nc4ccc(OCc5cccc(F)c5)c(Cl)c4)c3c2)o1 [Lapatinib] (partner 2 µM)
Method in brief: as §1

Row | Cell Line | relative viability (Sulindac + Palbociclib; first compound 0.08 µM) | relative viability (Sulindac + Palbociclib; first compound 0.253 µM) | relative viability (Sulindac + Palbociclib; first compound 0.8 µM) | relative viability (Sulindac + Palbociclib; first compound 2.53 µM) | relative viability (Sulindac + Palbociclib; first compound 8 µM) | relative viability ([1]; first compound 0.005 µM) | relative viability ([1]; first compound 0.01581 µM) | relative viability ([1]; first compound 0.05 µM) | relative viability ([1]; first compound 0.1581 µM) | relative viability ([1]; first compound 0.5 µM) | relative viability ([2]; first compound 0.005 µM) | relative viability ([2]; first compound 0.01581 µM) | relative viability ([2]; first compound 0.05 µM) | relative viability ([2]; first compound 0.1581 µM) | relative viability ([2]; first compound 0.5 µM) | relative viability ([3]; first compound 0.005 µM) | relative viability ([3]; first compound 0.01581 µM) | relative viability ([3]; first compound 0.05 µM) | relative viability ([3]; first compound 0.1581 µM) | relative viability ([3]; first compound 0.5 µM)
1 | HOP-62 | 0.495 | 0.553 | 0.469 | 0.525 | 0.541 | 0.976 | 0.495 | 0.186 | 0.0948 | 0.0922 | 0.801 | 0.233 | 0.142 | 0.125 | 0.119 | 1.27 | 0.293 | 0.103 | 0.0855 | 0.0849
2 | LC-2-ad | 0.521 | 0.514 | 0.37 | 0.469 | 0.547 | 0.973 | 0.096 | 0.508 | 0.0851 | 0.0564 | 0.845 | 0.537 | 0.236 | 0.175 | 0.169 | 0.957 | 0.127 | 0.47 | 0.0776 | 0.0569
3 | LCLC-97TM1 | 0.201 | 0.244 | 0.203 | 0.212 | 0.277 | 0.164 | 0.158 | 0.219 | 0.151 | 0.0852 | 0.988 | 0.558 | 0.454 | 0.382 | 0.461 | 0.864 | 0.168 | 0.285 | 0.174 | 0.381
4 | LOU-NH91 | 0.473 | 0.535 | 0.536 | 0.521 | 0.571 | 0.519 | 0.461 | 0.54 | 0.369 | 0.374 | 0.923 | 0.816 | 0.627 | 0.512 | 0.238 | 0.861 | 0.582 | 0.539 | 0.275 | 0.292
5 | LU99A | 0.439 | 0.409 | 0.389 | 0.376 | 0.417 | 0.985 | 0.389 | 0.318 | 0.271 | 0.172 | 0.739 | 0.505 | 0.342 | 0.264 | 0.219 | 0.669 | 0.313 | 0.282 | 0.171 | 0.133
6 | LXF-289 | 0.685 | 0.672 | 0.556 | 0.659 | 0.624 | 0.822 | – | 0.257 | 0.122 | 0.0797 | 1.01 | 0.164 | 0.268 | 0.0989 | 0.0792 | 0.725 | – | 0.389 | 0.109 | 0.0903
7 | NCI-H23 | 0.613 | 0.549 | 0.495 | 0.505 | 0.589 | 0.975 | 0.215 | 0.259 | 0.155 | 0.107 | 0.898 | – | 0.43 | 0.258 | 0.387 | 0.886 | 0.184 | 0.357 | 0.172 | 0.134
8 | NCI-H322M | 0.436 | 0.462 | 0.489 | 0.474 | 0.46 | 1.3 | 1.14 | 0.993 | 0.78 | 0.742 | 0.95 | 0.759 | 0.536 | 0.357 | 0.288 | 0.746 | 0.438 | 0.484 | 0.402 | 0.278
